Assay results reported in the NIST ThermoML archive (doi:10.1016/j.jct.2010.09.003).
Numbers after ± are expanded uncertainties.

What was measured:
[1] = xn = mol fraction of the nth substance listed; settings: Ring tensiometer
[2] = Ring tensiometer

CC#N [acetonitrile] + O
[1]
Settings	surface tension liquid-gas [mN/m]
283.15 K, x1 = 0.0051	70.6 ± 0.91
283.15 K, x1 = 0.0101	67.18 ± 0.87
283.15 K, x1 = 0.0151	64.36 ± 0.83
283.15 K, x1 = 0.0217	61.23 ± 0.8
283.15 K, x1 = 0.0298	57.99 ± 0.76
283.15 K, x1 = 0.0377	55.36 ± 0.73
283.15 K, x1 = 0.0486	52.34 ± 0.69
283.15 K, x1 = 0.0593	49.47 ± 0.66
283.15 K, x1 = 0.0871	44.54 ± 0.6
283.15 K, x1 = 0.1011	42.3 ± 0.57
283.15 K, x1 = 0.1431	38.03 ± 0.52
283.15 K, x1 = 0.1615	35.51 ± 0.49
283.15 K, x1 = 0.1847	34.35 ± 0.48
283.15 K, x1 = 0.2068	33.9 ± 0.47
283.15 K, x1 = 0.2327	33.51 ± 0.47
283.15 K, x1 = 0.3098	32.89 ± 0.46
283.15 K, x1 = 0.3971	32.56 ± 0.46
283.15 K, x1 = 0.4878	32.29 ± 0.45
283.15 K, x1 = 0.6557	32.06 ± 0.45
283.15 K, x1 = 0.8056	31.26 ± 0.44
283.15 K, x1 = 0.9592	29.83 ± 0.43
298.15 K, x1 = 0.0149	62.36 ± 0.81
298.15 K, x1 = 0.0298	55.92 ± 0.73
298.15 K, x1 = 0.0516	49.39 ± 0.66
298.15 K, x1 = 0.0653	45.96 ± 0.61
298.15 K, x1 = 0.086	42.2 ± 0.57
298.15 K, x1 = 0.095	40.54 ± 0.55
298.15 K, x1 = 0.1023	39.63 ± 0.54
298.15 K, x1 = 0.1227	37.97 ± 0.52
298.15 K, x1 = 0.1403	36.42 ± 0.5
298.15 K, x1 = 0.157	35.68 ± 0.49
298.15 K, x1 = 0.1855	33.97 ± 0.47
298.15 K, x1 = 0.195	34.11 ± 0.48
298.15 K, x1 = 0.2541	32.92 ± 0.46
298.15 K, x1 = 0.3256	32.34 ± 0.45
298.15 K, x1 = 0.3959	31.68 ± 0.45
298.15 K, x1 = 0.4851	31.45 ± 0.44
298.15 K, x1 = 0.5913	30.95 ± 0.44
298.15 K, x1 = 0.693	30.37 ± 0.43
298.15 K, x1 = 0.7968	29.46 ± 0.42
308.15 K, x1 = 0.0217	60.53 ± 0.78
308.15 K, x1 = 0.0298	59 ± 0.77
308.15 K, x1 = 0.0377	55.56 ± 0.73
308.15 K, x1 = 0.0727	48.05 ± 0.64
308.15 K, x1 = 0.0871	45.83 ± 0.62
308.15 K, x1 = 0.1304	40.09 ± 0.55
308.15 K, x1 = 0.1431	38.79 ± 0.53
308.15 K, x1 = 0.1615	36.94 ± 0.51
308.15 K, x1 = 0.1847	35.7 ± 0.49
308.15 K, x1 = 0.2068	33.9 ± 0.47
308.15 K, x1 = 0.2327	33.51 ± 0.47
308.15 K, x1 = 0.3098	31.04 ± 0.44
308.15 K, x1 = 0.3971	30.05 ± 0.43
308.15 K, x1 = 0.4999	29.11 ± 0.42
308.15 K, x1 = 0.6557	28.41 ± 0.41
308.15 K, x1 = 0.7775	28.21 ± 0.41
308.15 K, x1 = 0.9592	28.05 ± 0.4

O [water]
[2]
Settings	surface tension liquid-gas [mN/m]
283.15 K	74.47 ± 0.94
298.15 K	72.06 ± 0.92
308.15 K	70.41 ± 0.9
